# Results as given in patent US20090118274A1, “MONOCYCLIC AMINOPROPYL TETRAHYDRO-PYRAZOLO-PYRIDINE MODULATORS OF CATHEPSIN S” (priority 2007, published 2009).
# Molecular target: T1, Recombinant human cathepsin S (CatS) (Homo sapiens, UniProt P25774)
# T1 construct: made in house
# Assay: Recombinant human cathepsin S (CatS) fluorogenic substrate inhibition assay
# Assay type: biochemical
# Settings: not given
# Protocol: Recombinant human cathepsin S (CatS) was expressed in the baculovirus system and purified in one step with a thiopropyl-sepharose column. […] The assay is run in 150 mM sodium acetate pH 5.0 containing 1.5 mM DTT and 150 mM NaCl. […] Measurements are taken every min for 20 min. The rate is calculated from the slope of the increase in fluorescence and the percent inhibition is calculated from this.
# T1 sequence (P25774 115-331): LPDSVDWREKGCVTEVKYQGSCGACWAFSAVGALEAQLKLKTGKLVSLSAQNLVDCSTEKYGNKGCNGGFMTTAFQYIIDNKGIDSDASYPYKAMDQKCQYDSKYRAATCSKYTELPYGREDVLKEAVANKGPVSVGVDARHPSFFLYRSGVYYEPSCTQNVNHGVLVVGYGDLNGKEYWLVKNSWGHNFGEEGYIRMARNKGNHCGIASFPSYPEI
row,IC50 [µM],SMILES
1,0.08,"CC(=O)NCC1CCN(CC(O)Cn2nc(-c3ccc(C(F)(F)F)c(CNC(=O)C=C(C)C)c3)c3c2CCN(S(C)(=O)=O)C3)CC1 (stereo not drawn) [Example 267, 3-Methyl-but-2-enoic acid 5-(1-{3-[4-(acetylamino-methyl)-piperidin-1-yl]-2-hydroxy-propyl}-5-methanesulfonyl-4,5,6,7-tetrahydro-1H-pyrazolo[4,3-c]pyridin-3-yl)-2-trifluoromethyl-benzylamide]"
2,0.8,"CC(C)CCNCc1cc(-c2nn(CC(O)CN3CCC(NS(C)(=O)=O)CC3)c3c2CN(S(C)(=O)=O)CC3)ccc1C(F)(F)F (stereo not drawn) [Example 283, N-{1-[2-Hydroxy-3-(5-methanesulfonyl-3-3-[(3-methyl-butylamino)-methyl]-4-trifluoromethyl-phenyl-4,5,6,7-tetrahydro-pyrazolo[4,3-c]pyridin-1-yl)-propyl]-piperidin-4-yl}-methanesulfonamide]"

row,SMILES,IC50 [µM]
1,"CS(=O)(=O)N1CCc2c(c(-c3ccc(C(F)(F)F)c(CNC(=O)Oc4ccccc4)c3)nn2CCCN2CCC3(CCNC3=O)CC2)C1 [Example 148, (5-{5-Methanesulfonyl-1-[3-(1-oxo-2,8-diaza-spiro[4.5]dec-8-yl)-propyl]-4,5,6,7-tetrahydro-1H-pyrazolo[4,3-c]pyridin-3-yl}-2-trifluoromethyl-benzyl)-carbamic acid phenyl ester]",0.2

# Same assay, conditions: average of results obtained; substrate Z-Valine-Valine-Arginine-AMC 10 μM, pH 5.0; read-out: CatS IC50
row,IC50 [µM],SMILES
1,0.97,"CS(=O)(=O)N1CCc2c(c(-c3ccc(Cl)c(CNC(=O)c4cccs4)c3)nn2CCCN2CCCC2)C1 [Example 241, Thiophene-2-carboxylic acid 2-chloro-5-[5-methanesulfonyl-1-(3-pyrrolidin-1-yl-propyl)-4,5,6,7-tetrahydro-1H-pyrazolo[4,3-c]pyridin-3-yl]-benzylamide]"
2,1.6,"CS(=O)(=O)N1CCc2c(c(-c3ccc(C(F)(F)F)c(C(=O)Nc4ccccc4)c3)nn2CC(O)CN2CCCC2)C1 (stereo not drawn) [Example 192, 5-[1-(2-Hydroxy-3-pyrrolidin-1-yl-propyl)-5-methanesulfonyl-4,5,6,7-tetrahydro-1H-pyrazolo[4,3-c]pyridin-3-yl]-N-phenyl-2-trifluoromethyl-benzamide]"
3,0.27,"CC(C)CC(=O)NCc1cc(-c2nn(CC(O)CN3CCC(O)CC3)c3c2CN(S(C)(=O)=O)CC3)ccc1C(F)(F)F (stereo not drawn) [Example 245, N-(5-{1-[2-Hydroxy-3-(4-hydroxy-piperidin-1-yl)-propyl]-5-methanesulfonyl-4,5,6,7-tetrahydro-1H-pyrazolo[4,3-c]pyridin-3-yl}-2-trifluoromethyl-benzyl)-3-methyl-butyramide]"
4,0.03,"CC(C)=CC(=O)NCc1cc(-c2nn(CC(O)CN3CCC(C(C)(C)C)CC3)c3c2CN(S(C)(=O)=O)CC3)ccc1C(F)(F)F (stereo not drawn) [Example 273, 3-Methyl-but-2-enoic acid 5-{1-[3-(4-tert-butyl-piperidin-1-yl)-2-hydroxy-propyl]-5-methanesulfonyl-4,5,6,7-tetrahydro-1H-pyrazolo[4,3-c]pyridin-3-yl}-2-trifluoromethyl-benzylamide]"
5,0.18,"CS(=O)(=O)N1CCc2c(c(-c3ccc(Cl)c(CNC(=O)c4ccc(F)cc4)c3)nn2CC(O)CN2CCC(F)(F)C2)C1 (stereo not drawn) [Example 84, N-(2-Chloro-5-{1-[3-(3,3-difluoro-pyrrolidin-1-yl)-2-hydroxy-propyl]-5-methanesulfonyl-4,5,6,7-tetrahydro-1H-pyrazolo[4,3-c]pyridin-3-yl}-benzyl)-4-fluoro-benzamide]"
6,2.9,"CS(=O)(=O)N1CCc2c(c(-c3ccc(C(F)(F)F)c(CNS(=O)(=O)c4ccccc4)c3)nn2CC(O)CN2CCCC2)C1 (stereo not drawn) [Example 66, N-{5-[1-(2-Hydroxy-3-pyrrolidin-1-yl-propyl)-5-methanesulfonyl-4,5,6,7-tetrahydro-1H-pyrazolo[4,3-c]pyridin-3-yl]-2-trifluoromethyl-benzyl}-benzenesulfonamide]"
7,0.5,"CS(=O)(=O)N1CCc2c(c(-c3ccc(C(F)(F)F)c(CNC(=O)C4CCCCC4)c3)nn2CC(O)CN2CCCC2)C1 (stereo not drawn) [Example 168, Cyclohexanecarboxylic acid 5-[1-(2-hydroxy-3-pyrrolidin-1-yl-propyl)-5-methanesulfonyl-4,5,6,7-tetrahydro-1H-pyrazolo[4,3-c]pyridin-3-yl}-2-trifluoromethyl-benzylamide]"
8,0.03,"CCOC(=O)C1CCN(CC(O)Cn2nc(-c3ccc(C(F)(F)F)c(CNC(=O)c4ccc(F)cc4)c3)c3c2CCN(S(C)(=O)=O)C3)CC1 (stereo not drawn) [Example 103, 1-[3-(3-{3-[(4-Fluoro-benzoylamino)-methyl]-4-trifluoromethyl-phenyl}-5-methanesulfonyl-4,5,6,7-tetrahydro-pyrazolo[4,3-c]pyridin-1-yl)-2-hydroxy-propyl]-piperidine-4-carboxylic acid ethyl ester]"
9,0.25,"CS(=O)(=O)N1CCc2c(c(-c3ccc(C(F)(F)F)c(CNC(=O)c4ccccc4)c3)nn2CC(O)CN2CCCC2)C1 (stereo not drawn) [Example 56, N-{5-[1-(2-Hydroxy-3-pyrrolidin-1-yl-propyl)-5-methanesulfonyl-4,5,6,7-tetrahydro-1H-pyrazolo[4,3-c]pyridin-3-yl]-2-trifluoromethyl-benzyl}-benzamide]"
10,0.3,"CC(C)CC(=O)NCc1cc(-c2nn(CC(O)CN3CCC(C)(C)CC3)c3c2CN(S(C)(=O)=O)CC3)ccc1C(F)(F)F (stereo not drawn) [Example 251, N-(5-{1-[3-(4,4-Dimethyl-piperidin-1-yl)-2-hydroxy-propyl]-5-methanesulfonyl-4,5,6,7-tetrahydro-1H-pyrazolo[4,3-c]pyridin-3-yl}-2-trifluoromethyl-benzyl)-3-methyl-butyramide]"
11,0.97,"CC(=O)Nc1ccc(C(=O)NCc2cc(-c3nn(CC(O)CN4CCCC4)c4c3CN(S(C)(=O)=O)CC4)ccc2C(F)(F)F)cc1 (stereo not drawn) [Example 240, 4-Acetylamino-N-{5-[1-(2-hydroxy-3-pyrrolidin-1-yl-propyl)-5-methanesulfonyl-4,5,6,7-tetrahydro-1H-pyrazolo[4,3-c]pyridin-3-yl]-2-trifluoromethyl-benzyl}-benzamide]"

# More lines, now with the values behind:
row,SMILES,IC50 [µM]
1,"CS(=O)(=O)N1CCc2c(c(-c3ccc(C(F)(F)F)c(CNC(=O)c4ccc(F)cc4)c3)nn2CC(O)CN2CCC(CCO)CC2)C1 (stereo not drawn) [Example 91, 4-Fluoro-N-[5-(1-{2-hydroxy-3-[4-(2-hydroxy-ethyl)-piperidin-1-yl]-propyl}-5-methanesulfonyl-4,5,6,7-tetrahydro-1H-pyrazolo[4,3-c]pyridin-3-yl)-2-trifluoromethyl-benzyl]-benzamide]",0.16
2,"CNC(=O)NC1CCN(CC(O)Cn2nc(-c3ccc(Cl)c(CNC(=O)c4ccc(F)cc4)c3)c3c2CCN(S(C)(=O)=O)C3)CC1 (stereo not drawn) [Example 77, N-[2-Chloro-5-(1-{2-hydroxy-3-[4-(3-methyl-ureido)-piperidin-1-yl]-propyl}-5-methanesulfonyl-4,5,6,7-tetrahydro-1H-pyrazolo[4,3-c]pyridin-3-yl)-benzyl]-4-fluoro-benzamide]",0.03
3,"CS(=O)(=O)N1CCc2c(c(-c3ccc(Cl)c(CNC(=O)/C=C/c4ccccc4)c3)nn2CCCN2CCCC2)C1 [Example 219, N-{2-Chloro-5-[5-methanesulfonyl-1-(3-pyrrolidin-1-yl-propyl)-4,5,6,7-tetrahydro-1H-pyrazolo[4,3-c]pyridin-3-yl]-benzyl}-3-phenyl-acrylamide]",0.64
4,CC(C)CC(=O)NCc1cc(-c2nn(CC(O)CN3CCC(NC(=O)OC(C)(C)C)CC3)c3c2CN(S(C)(=O)=O)CC3)ccc1C(F)(F)F (stereo not drawn) [Example 244],0.05
5,"CC(=O)N1CCN(CC(O)Cn2nc(-c3ccc(C(F)(F)F)c(CNC(=O)c4ccc(F)cc4)c3)c3c2CCN(S(C)(=O)=O)C3)CC1 (stereo not drawn) [Example 21, N-(5-{1-[3-(4-Acetyl-piperazin-1-yl)-2-hydroxy-propyl]-5-methanesulfonyl-4,5,6,7-tetrahydro-1H-pyrazolo[4,3-c]pyridin-3-yl}-2-trifluoromethyl-benzyl)-4-fluoro-benzamide]",0.3
6,"CS(=O)(=O)N1CCc2c(c(-c3ccc(C(F)(F)F)c(CNC(=O)c4ccccc4Cl)c3)nn2CC(O)CN2CCCC2)C1 (stereo not drawn) [Example 62, 2-Chloro-N-{5-[1-(2-hydroxy-3-pyrrolidin-1-yl-propyl)-5-methanesulfonyl-4,5,6,7-tetrahydro-1H-pyrazolo[4,3-c]pyridin-3-yl]-2-trifluoromethyl-benzyl}-benzamide]",0.22
7,"O=C(NCc1cc(-c2nn(CC(O)CN3CCC4(CCNC4=O)CC3)c3c2CNCC3)ccc1C(F)(F)F)c1ccc(F)cc1 (stereo not drawn) [Example 238, 4-Fluoro-N-(5-{1-[2-hydroxy-3-(1-oxo-2,8-diaza-spiro[4.5]dec-8-yl)-propyl]-4,5,6,7-tetrahydro-1H-pyrazolo[4,3-c]pyridin-3-yl}-2-trifluoromethyl-benzyl)-benzamide]",0.94
8,"CS(=O)(=O)N1CCc2c(c(-c3ccc(C(F)(F)F)c(CNC(=O)c4ccc(F)cc4)c3)nn2CC(O)CN2CCOCC2)C1 (stereo not drawn) [Example 23, 4-Fluoro-N-{5-[1-(2-hydroxy-3-morpholin-4-yl-propyl)-5-methanesulfonyl-4,5,6,7-tetrahydro-1H-pyrazolo[4,3-c]pyridin-3-yl]-2-trifluoromethyl-benzyl}-benzamide]",0.15
9,"CC(C)=CC(=O)NCc1cc(-c2nn(CC(O)CN3CCCC(CN(C)C)C3)c3c2CN(S(C)(=O)=O)CC3)ccc1C(F)(F)F (stereo not drawn) [Example 271, 3-Methyl-but-2-enoic acid 5-{1-[3-(3-dimethylaminomethyl-piperidin-1-yl)-2-hydroxy-propyl]-5-methanesulfonyl-4,5,6,7-tetrahydro-1H-pyrazolo[4,3-c]pyridin-3-yl}-2-trifluoromethyl-benzylamide]",0.58
10,"CS(=O)(=O)N1CCc2c(c(-c3ccc(Cl)c(CNC(=O)c4ccc(F)cc4)c3)nn2CC(O)CN2CCC(F)(F)CC2)C1 (stereo not drawn) [Example 10, N-(2-Chloro-5-{1-[3-(4,4-difluoro-piperidin-1-yl)-2-hydroxy-propyl]-5-methanesulfonyl-4,5,6,7-tetrahydro-1H-pyrazolo[4,3-c]pyridin-3-yl}-benzyl)-4-fluoro-benzamide]",0.09
